From US20120027862A1, “Azelaic acid-comprising formulation with added pigment” (INTENDIS GMBH, priority 2010, published 2012)
Values joined by “and” are separate entries in the source; they are usually repeats but may differ in a detail not shown here. Equal values may be shown once.

Experiments:
Format in all cases: cell-based, human
TNF-α = TNF-α in supernatants of UVB-irradiated HaCaT cells; details: UVB 100 mJ irradiated, azelaic acid 20 mM, pigment 3%
Experimental: (§1) HaCaT cells originate from a spontaneously immortalized permanent human keratinocyte cell line established by long-term cultivation of adult human keratinocytes under reduced calcium concentration and elevated temperature (Boukamp et al. J Cell Biol 106:761-771, 1988). HaCaT cells were propagated in culture medium. This consists of 88 ml DMEM/Ham's F12 w/o glutamine, 10 ml foetal calf serum, 1 ml penicillin/streptomycin solution with 10,000 units/ml and 1 ml of glutamine. […] HaCaT cells were sown in 6-well or 12-well plates at a cell number of 3×10^5 and 1.5×10^5 cells/well, respectively. The cells were cultivated to about 80% confluence in culture medium. 2 h prior to the intended UV irradiation, the cells were incubated with the above-mentioned substances. Immediately before the irradiation, the cells were washed 2× with PBS and irradiated therein. Irradiation was with UVB (spectrum: 280-360 nM, max. 320 nM) in a Waldmann-UVB source UV7002 at 100 mJ. […] The protein concentration was determined using a commercial kit from Meso Scale Discovery, Gaithersburg, Md., USA. […] The samples were then washed once more, 150 μl of read buffer were pipetted into the mixture and the electrochemiluminescence was measured in an MSD Sector plate reader. […] The following cell cultures were prepared: • unirradiated HaCaTs • irradiated HaCaTs (100 mJ) • irradiated HaCaTs (100 mJ) in the presence of azelaic acid, • irradiated HaCaTs (100 mJ) in the presence of azelaic acid and titanium dioxide-coated potassium aluminium silicate The following reagents were used to treat the cells: • azelaic acid, Fluka, batch S3317131508B29, 20 mM • titanium dioxide-coated potassium aluminium silicate, Merck Darmstadt, batch W08012807X, 3% The following cytokines/chemokines were analyzed: • IL-1β • IL-6 • TNF-α • VEGF • MCP-1=CCL2 HaCaT cells were cultivated in triplicates, irradiated with 100 mJ UVB and then cultivated in the presence or absence of azelaic acid and, if appropriate, titanium dioxide-coated potassium aluminium silicate or the combination thereof for 24 or 48 h. […]

IL-6 = IL-6 in supernatants of UVB-irradiated HaCaT cells; details: UVB 100 mJ irradiated, azelaic acid 20 mM, pigment 3%
Experimental: as §1

HaCaT cells = experiment: Overall anti-inflammatory effect in UVB-irradiated skin cell cultures (HaCaT); details: addition of azelaic acid
Experimental: HaCaT cells originate from a spontaneously immortalized permanent human keratinocyte cell line established by long-term cultivation of adult human keratinocytes under reduced calcium concentration and elevated temperature (Boukamp et al. J Cell Biol 106:761-771, 1988). HaCaT cells were propagated in culture medium. This consists of 88 ml DMEM/Ham's F12 w/o glutamine, 10 ml foetal calf serum, 1 ml penicillin/streptomycin solution with 10,000 units/ml and 1 ml of glutamine. […] HaCaT cells were sown in 6-well or 12-well plates at a cell number of 3×10^5 and 1.5×10^5 cells/well, respectively. The cells were cultivated to about 80% confluence in culture medium. 2 h prior to the intended UV irradiation, the cells were incubated with the above-mentioned substances. Immediately before the irradiation, the cells were washed 2× with PBS and irradiated therein. […] The protein concentration was determined using a commercial kit from Meso Scale Discovery, Gaithersburg, Md., USA. […] The samples were then washed once more, 150 μl of read buffer were pipetted into the mixture and the electrochemiluminescence was measured in an MSD Sector plate reader. […] The cytokines IL-1β (A), IL-6 (B), TNFα (C), VEGF (D) and MCP-1/CCL2 (E) were measured in the supernatant in triplicate after 24 (series I) and 48 h (series II) using Mesoscale. […]

IL-1β = IL-1β in supernatants of UVB-irradiated HaCaT cells; details: UVB 100 mJ irradiated, azelaic acid 20 mM, pigment 3%
Experimental: (§2) HaCaT cells originate from a spontaneously immortalized permanent human keratinocyte cell line established by long-term cultivation of adult human keratinocytes under reduced calcium concentration and elevated temperature (Boukamp et al. J Cell Biol 106:761-771, 1988). HaCaT cells were propagated in culture medium. This consists of 88 ml DMEM/Ham's F12 w/o glutamine, 10 ml foetal calf serum, 1 ml penicillin/streptomycin solution with 10,000 units/ml and 1 ml of glutamine. […] HaCaT cells were sown in 6-well or 12-well plates at a cell number of 3×10^5 and 1.5×10^5 cells/well, respectively. The cells were cultivated to about 80% confluence in culture medium. 2 h prior to the intended UV irradiation, the cells were incubated with the above-mentioned substances. Immediately before the irradiation, the cells were washed 2× with PBS and irradiated therein. Irradiation was with UVB (spectrum: 280-360 nM, max. 320 nM) in a Waldmann-UVB source UV7002 at 100 mJ. After the UV irradiation, the cells were irradiated in culture medium in the presence and absence of the abovementioned substances. The cultures were stopped 24 h or 48 h after the UVB irradiation, and the supernatant was removed and centrifuged to remove debris and titanium dioxide-coated potassium aluminium silicate. All cultures were set up in triplicate. The supernatants were frozen at -80° C. until further use. The protein concentration was determined using a commercial kit from Meso Scale Discovery, Gaithersburg, Md., USA. The test was carried out in accordance with the instructions of the manufacturer (www.mesoscale.com). […] The samples were then washed once more, 150 μl of read buffer were pipetted into the mixture and the electrochemiluminescence was measured in an MSD Sector plate reader. […] The following cell cultures were prepared: • unirradiated HaCaTs • irradiated HaCaTs (100 mJ) • irradiated HaCaTs (100 mJ) in the presence of azelaic acid, • irradiated HaCaTs (100 mJ) in the presence of azelaic acid and titanium dioxide-coated potassium aluminium silicate The following reagents were used to treat the cells: • azelaic acid, Fluka, batch S3317131508B29, 20 mM • titanium dioxide-coated potassium aluminium silicate, Merck Darmstadt, batch W08012807X, 3% The following cytokines/chemokines were analyzed: • IL-1β • IL-6 • TNF-α • VEGF • MCP-1=CCL2 HaCaT cells were cultivated in triplicates, irradiated with 100 mJ UVB and then cultivated in the presence or absence of azelaic acid and, if appropriate, titanium dioxide-coated potassium aluminium silicate or the combination thereof for 24 or 48 h. […] The cytokines IL-1β (A), IL-6 (B), TNFα (C), VEGF (D) and MCP-1/CCL2 (E) were measured in the supernatant in triplicate after 24 (series I) and 48 h (series II) using Mesoscale. […]

MCP-1 = experiment: MCP-1/CCL2 in supernatants of UVB-irradiated HaCaT cells; details: UVB 100 mJ irradiated, azelaic acid 20 mM, pigment 3%
Experimental: as §2

VEGF = VEGF in supernatants of UVB-irradiated HaCaT cells
Experimental: HaCaT cells originate from a spontaneously immortalized permanent human keratinocyte cell line established by long-term cultivation of adult human keratinocytes under reduced calcium concentration and elevated temperature (Boukamp et al. J Cell Biol 106:761-771, 1988). HaCaT cells were propagated in culture medium. This consists of 88 ml DMEM/Ham's F12 w/o glutamine, 10 ml foetal calf serum, 1 ml penicillin/streptomycin solution with 10,000 units/ml and 1 ml of glutamine. […] HaCaT cells were sown in 6-well or 12-well plates at a cell number of 3×10^5 and 1.5×10^5 cells/well, respectively. The cells were cultivated to about 80% confluence in culture medium. 2 h prior to the intended UV irradiation, the cells were incubated with the above-mentioned substances. Immediately before the irradiation, the cells were washed 2× with PBS and irradiated therein. Irradiation was with UVB (spectrum: 280-360 nM, max. 320 nM) in a Waldmann-UVB source UV7002 at 100 mJ. After the UV irradiation, the cells were irradiated in culture medium in the presence and absence of the abovementioned substances. The cultures were stopped 24 h or 48 h after the UVB irradiation, and the supernatant was removed and centrifuged to remove debris and titanium dioxide-coated potassium aluminium silicate. All cultures were set up in triplicate. The supernatants were frozen at -80° C. until further use. The protein concentration was determined using a commercial kit from Meso Scale Discovery, Gaithersburg, Md., USA. The test was carried out in accordance with the instructions of the manufacturer (www.mesoscale.com). After addition of the blocking solution to the plates precoated with scavenger antibodies, the samples were incubated for 1 h and then washed. […] After this time, the detection antibody was added for 1 h. The samples were then washed once more, 150 μl of read buffer were pipetted into the mixture and the electrochemiluminescence was measured in an MSD Sector plate reader. […] The following cell cultures were prepared: • unirradiated HaCaTs • irradiated HaCaTs (100 mJ) • irradiated HaCaTs (100 mJ) in the presence of azelaic acid, • irradiated HaCaTs (100 mJ) in the presence of azelaic acid and titanium dioxide-coated potassium aluminium silicate The following reagents were used to treat the cells: • azelaic acid, Fluka, batch S3317131508B29, 20 mM • titanium dioxide-coated potassium aluminium silicate, Merck Darmstadt, batch W08012807X, 3% The following cytokines/chemokines were analyzed: • IL-1β • IL-6 • TNF-α • VEGF • MCP-1=CCL2 HaCaT cells were cultivated in triplicates, irradiated with 100 mJ UVB and then cultivated in the presence or absence of azelaic acid and, if appropriate, titanium dioxide-coated potassium aluminium silicate or the combination thereof for 24 or 48 h. The supernatants were then used to measure proinflammatory cytokines. The cytokines IL-1β (A), IL-6 (B), TNFα (C), VEGF (D) and MCP-1/CCL2 (E) were measured in the supernatant in triplicate after 24 (series I) and 48 h (series II) using Mesoscale. What is shown are the mean values and also the respective individual values of the protein determinations.

O=C(O)CCCCCCCC(=O)O [Azelaic acid, azelaic acid]
TNF-α in HACaT cell supernatants after 24 h, mean (TNF-α; 24 h, mean n = 3): 7.2 pg/L | TNF-α in HACaT cell supernatants after 24 h, individual values #1-#3 (TNF-α; 24 h, single cultures): 7.6 pg/L and 21.63 pg/L and 6.7 pg/L | TNF-α in HACaT cell supernatants after 48 h, mean (TNF-α; 48 h, mean n = 3): 30.0 pg/L | IL-6 in HACaT cell supernatants after 24 h, mean (IL-6; 24 h, mean n = 3): 44.3 pg/L | IL-6 in HACaT cell supernatants after 24 h, individual values #1-#3 (IL-6; 24 h, single cultures): 24.7 pg/L and 70.9 pg/L and 37.4 pg/L | IL-6 in HACaT cell supernatants after 48 h, mean (IL-6; 48 h, mean n = 3): 120.7 pg/L | induction of the inflammatory cytokines (IL-1β, IL-6, TNF-α) after irradiation of keratinocytes (HaCaT cells): can be reduced | IL-1β in HACaT cell supernatants after 24 h, mean (IL-1β; 24 h, mean n = 3): 5.8 pg/L | IL-1β in HACaT cell supernatants after 24 h, individual values #1-#3 (IL-1β; 24 h, single cultures): 3.1 pg/l (2×) and 11.3 pg/l | IL-1β in HACaT cell supernatants after 48 h, mean (IL-1β; 48 h, mean n = 3): 10.4 pg/L | IL-1β in HACaT cell supernatants after 48 h, individual values #1-#3 (IL-1β; 48 h, single cultures): 7.2 pg/mL and 14.3 pg/mL and 9.7 pg/mL | MCP-1 in HACaT cell supernatants after 24 h, mean (MCP-1; 24 h, mean n = 3): 683.2 pg/L | MCP-1 in HACaT cell supernatants after 24 h, individual values #1-#3 (MCP-1; 24 h, single cultures): 520.8 pg/L and 908.9 pg/L and 619.9 pg/L | MCP-1 in HACaT cell supernatants after 48 h, mean (MCP-1; 48 h, mean n = 3): 1190.1 pg/L | MCP-1 in HACaT cell supernatants after 48 h, individual values #1-#3 (MCP-1; 48 h, single cultures): 1116.1 pg/L and 1279.9 pg/L and 1174.3 pg/L | VGEF in HACaT cell supernatants after 24 h, mean (VEGF; UVB 100 mJ irradiated, 24 h, azelaic acid 20 mM, pigment 3%, mean n = 3): 692.4 pg/L | VGEF in HACaT cell supernatants after 24 h, individual values #1-#3 (VEGF; UVB 100 mJ irradiated, 24 h, azelaic acid 20 mM, pigment 3%, single cultures): 633.4 pg/L and 1694.59 pg/L and 751.4 pg/L | VGEF in HACaT cell supernatants after 48 h, mean (VEGF; UVB 100 mJ irradiated, 48 h, azelaic acid 20 mM, pigment 3%, mean n = 3): 3999.0 pg/L | VGEF in HACaT cell supernatants after 48 h, individual values #1-#3 (VEGF; UVB 100 mJ irradiated, 48 h, azelaic acid 20 mM, pigment 3%, single cultures): 2950 pg/mL and 5810 pg/mL and 3240 pg/mL | effect on the endothelial growth factor VEGF (VEGF; keratinocytes, azelaic acid alone): leads to a reduction
